Source: patent publication US20230321043A1, “COMPOUNDS HAVING PSEUDOMONAS ANTI-BIOFILM PROPERTIES” (Københavns Universitet, priority 2020, published 2023)

What was measured:
wt P. aeruginosa biofilm = experiment: time dependent liberation of bacteria from biofilm (CFU); type: cell-based, Pseudomonas aeruginosa; details: 25 μM, 18 hours old biofilm, FIG. 4C
Method: In a further experiment (FIG. 4C) the time dependent liberation of wt P. aeruginosa bacteria during H6-335-P1 induced dispersal performed in 48 well trays microtiter trays was determined. After 18 hours of growth in ABtrace media aliquots supplemented with 0.5% glucose, 0.5% Cas amino acids and 1 μM FeCl3 on a rotary shaker, 25 μM H6-335-P1 or 1% DMSO control was added. At the time-points indicated, samples were withdrawn and plated for CFU determinations. Average CFU's per ml for the 1% DMSO controls at each time point are set to 100.

Staphylococcus aureus = experiment: biofilm formation / dispersal, host range; type: cell-based; details: data not shown
[1] = tested on: P. aeruginosa (PA01) tagged with GFP biofilm; experiment: flow-chamber biofilm, confocal laser scanning microscopy; type: cell-based, Pseudomonas aeruginosa
Method: Biofilms were grown at 37° C. in continuous-culture, once-through, three-channel, flow-chambers (individual channel dimensions of 1×4×40 mm) perfused with sterile AB trace minimal medium (Pamp and Tolker-Nielsen, 2007), supplemented with 0.3 mM glucose and 0.025% (v/v) DMSO. P. aeruginosa (PA01) tagged with GFP at a neutral chromosomal locus was used for the experiments. After a static attachment phase of 1 h, the flow of medium was turned on and the biofilms were allowed to establish for 48 h in the absence (untreated) or presence (treated) of medium supplemented with 25 μM of H6-335-P1. Confocal laser scanning microscopy was used to image the biofilms after 24 h and 48 h (FIG. 5A).
Confocal laser scanning microscopy was used to image the biofilm immediately before H6-335-P1 was added, and after 4 h of H6-335-P1 treatment. Simulated fluorescence projections in 3D were generated from the image stacks using the IMARIS software package (Bitplane, Oxford Imaging, UK) and the resulting images were processed for publication using Photoshop (Adobe, USA).

P. aeruginosa biofilms = experiment: time dependent antibiotic killing of peg biofilms after H6-335-P1 treatment; type: cell-based, Pseudomonas aeruginosa; details: 2 hours 100 μM H6-335-P1, then 30 μg/ml tobramycin or 0.5 μg/ml ciprofloxacin
[2] = tested on: total cellular c-di-GMP content of P. aeruginosa ΔwspF,Δpsl,Δpel; experiment: HPLC coupled tandem-MS quantification of c-di-GMP extracts; type: cell-based, Pseudomonas aeruginosa; details: 100 μM, 8 hours of growth; pmol c-di-GMP per mg protein, FIG. 1
Method: Specifically, a 20 h old culture of P. aeruginosa ΔwspF,Δpsl,Δpel (Rybtke et al 2012) was diluted 100 fold into 25 mL aliquots of ABtrace media supplemented with 0.5% Cas amino acids, 0.2% glucose, 60 μg/mL of gentamicin, 1 μM FeCl3, 0.05% DMSO and either 100 μM H6-335-P1, 100 μM H6-335 or no compound as reference control. Acting as a positive control for low total cellular c-di-GMP content, a 20 hour old culture of strain P. aeruginosa ΔwspF,Δpsl,Δpel carrying plasmid pYhj::Gm (encoding a constitutively expressed YhjH phosphodiesterase) was also diluted 100 fold into 25 mL of ABtrace medium supplemented with 0.5% Cas amino acids, 0.2% glucose, 60 μg/mL of gentamicin, 1 μM FeCl3 and 0.05% DMSO. The 4 cultures were placed on a rotary shaker and following 8 hours of growth at 37° C. and 200 RPM culture samples for c-di-GMP extraction and protein quantification was collected from each of the 4 different cultures. C-di-GMP extracts were prepared and subsequently quantified by HPLC coupled tandem-MS analysis as previously described (Groizeleau et al., 2016), while protein quantification was carried out using the Pierce 660 nm Protein Assay (Thermo Scientific Cat. No 22660) according to the manufacturer's protocol. […]

[3] = tested on: P. aeruginosa biofilm on urinary tract catheters; experiment: catheter associated urinary tract infection model in mice; type: in vivo
Method: Silicone catheters (5 mm long, 0.64 mm OD×0.3 mm ID) incubated with P. aeruginosa cultures (OD 1) for 22 hours to allow bacterial adhesion and subsequent coating. Mice then had the catheters inserted in the bladder and biofilm developed on the catheters for 24 hours. […] At 48 hours post-insertion the mice were euthanized, and the bacterial contents as CFU per implant were determined. Two experiments were pooled, and the median CFU per implant for the placebo group was set to 100. Horizontal lines indicate median CFU for each group. Each symbol represents a mouse. IP administered doses: H6 P1: 2×13 mg/Kg BW, CIP: 2×1 mg/Kg BW.
Silicone catheters (5 mm long, 0.64 mm OD×0.3 mm ID) incubated with P. aeruginosa cultures (OD 1) for 22 hours to allow bacterial adhesion and subsequent coating. Mice then had the catheters inserted in the bladder and biofilm developed on the catheters for 24 hours. […] At 48 hours post-insertion the mice were euthanized, and the bacterial contents as CFU per implant were determined. The median CFU per catheter for the control groups were set to 100. The median CFU per catheter for the placebo groups were 3×10^5 and 7×10^4. Horizontal lines indicate median CFU for each group. Each symbol represents one mouse. Orally administered doses: 2×13 mg/Kg BW, 2×3.3 mg/Kg BW. […]

N=C1NN=C(N)/C1=N/Nc1ccccc1F [H6-335-P1, 4-[(2-fluorophenyl) hydrazinylidene]pyrazole-3,5-diamine]
dispersal of live bacteria from already formed biofilms (wt P. aeruginosa biofilm): induced dispersal of live bacteria into the growth medium
biofilm formation of Staphylococcus aureus (Staphylococcus aureus): failed to reduce biofilm formation
prevention of biofilm formation in flow-through cells ([1]; 25 μM in the growth medium, 48 h, FIG. 5A): significantly prevented biofilm formation
biofilm biomass left behind ([1]; 25 μM, 48 h old biofilm, after four hours of exposure, FIG. 5B): 10%
surviving cells of biofilms after antibiotic challenge (P. aeruginosa biofilms): substantial decrease of surviving cells
reduction of total cellular c-di-GMP content [2]: 90%
number of bacteria on the catheters, intraperitoneal administration ([3]; given as H6-335-P1:HCl 2×13 mg/Kg BW IP, with or without ciprofloxacin, FIG. 10A): reduced the number of bacteria on the catheters
biofilm mass on the catheters, oral administration ([3]; given as H6-335-P1:HCl in Nutella, as low as […] (3.3 mg/Kg BW), FIG. 10B): significantly reduces the biofilm mass on the catheters
